Experimental data published in patent US10258603B2 (priority 2014, dated 2019).

The molecules below were run against T1, TAF1-BD2 (Homo sapiens, UniProt P21675) (assay: TAF1-BD2 TR-FRET Binding Assay). Settings: Assay: TAF-1.
T1 sequence (P21675 1525-1656): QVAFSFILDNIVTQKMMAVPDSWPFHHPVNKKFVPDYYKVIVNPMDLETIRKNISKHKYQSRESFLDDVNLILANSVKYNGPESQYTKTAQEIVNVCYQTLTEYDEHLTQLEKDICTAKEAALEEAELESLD
Description: Specifically, in a 384 well ProxiPlate TAF1-BD2 (6 nM final) was combined with biotin-ligand (50 nM final) in 50 mM HEPES (pH 7.5), 50 mM NaCl, 1 mM TCEP, 0.01% (w/v) BSA, and 0.008% (w/v) Brij-35 either in the presence of DMSO (final 0.2% DMSO) or compound dilution series in DMSO. After 10 minutes incubation at room temperature, a mixture Eu-W1024 Anti-6×His antibody (Perkin Elmer AD0110) and SureLight™ Allophycocyanin-Streptavidin (APC-SA, Perkin Elmer CR130-100) were added to a final concentrations of 0.2 nMolar antibody and 25 nMolar APC-SA, respectively. After twenty minutes of equilibration, the plates were read on an Envision instrument and IC50s calculated using a four parameter non-linear curve fit.

Point of comparison: `Cn1cc(C(=O)NCC2CCN(C(=O)OC(C)(C)C)C2)c2cc[nH]c2c1=O` (stereo not shown) [Example 137], IC50 510 nM. Against it:
- CC(CN1CCC(N(C)C(=O)c2cn(C)c(=O)c3[nH]ccc23)CC1)c1ccccc1 (stereo not shown) [Example 255] — 9.4-fold higher, 4800 nM
- Cn1cc(C(=O)NC2CCN(C3CCCC3)CC2)c2cc[nH]c2c1=O [Example 43, N-(1-cyclopentyl-4-piperidyl)-6-methyl-7-oxo-1H-pyrrolo[2,3-c]pyridine-4-carboxamide] — within 1.5-fold, 720 nM
- CC(C)N1CC2C(C1)C2NC(=O)c1cn(C)c(=O)c2[nH]ccc12 (stereo not shown) [Example 228] — 6.5-fold higher, 3300 nM
- Cn1cc(C(=O)N2CCC(F)CC2)c2cc[nH]c2c1=O [Example 53, 4-(4-fluoropiperidine-1-carbonyl)-6-methyl-1H-pyrrolo[2,3-c]pyridin-7-one] — 16-fold higher, 8200 nM
- CN(C1CCCCC1)C1CCN(C(=O)c2cn(C)c(=O)c3[nH]ccc23)CC1 [Example 52, 4-[4-[cyclohexyl(methyl)amino]piperidine-1-carbonyl]-6-methyl-1H-pyrrolo[2,3-c]pyridin-7-one] — 14-fold higher, 7100 nM
- Cn1cc(C(=O)NC2CCN(c3ncc(F)cn3)CC2)c2cc[nH]c2c1=O [Example 154, N-[1-(5-fluoropyrimidin-2-yl)-4-piperidyl]-6-methyl-7-oxo-1H-pyrrolo[2,3-c]pyridine-4-carboxamide] — within 1.5-fold, 530 nM
- Cn1cc(C(=O)NC2CCN(c3cnccn3)CC2)c2cc[nH]c2c1=O [Example 151, 6-methyl-7-oxo-N-(1-pyrazin-2-yl-4-piperidyl)-1H-pyrrolo[2,3-c]pyridine-4-carboxamide] — within 1.5-fold, 550 nM
- Cn1cc(C(=O)NC2CCN(c3ccccn3)CC2)c2cc[nH]c2c1=O [Example 42, 6-methyl-7-oxo-N-[1-(2-pyridyl)-4-piperidyl]-1H-pyrrolo[2,3-c]pyridine-4-carboxamide] — 2.4-fold lower, 210 nM
- CC=CCn1cc(C(=O)NCCN2CCN(Cc3ccccc3)CC2)c2cc[nH]c2c1=O [Example 16, N-[2-(4-benzylpiperazin-1-yl)ethyl]-6-but-2-enyl-7-oxo-1H-pyrrolo[2,3-c]pyridine-4-carboxamide] — 12-fold higher, 6000 nM
- CN(CC1CCN(CC2CCOC2)CC1)C(=O)c1cn(C)c(=O)c2[nH]ccc12 (stereo not shown) [Example 236] — 27-fold higher, 14000 nM
- CN1CCC(C)(NC(=O)c2cn(C)c(=O)c3[nH]ccc23)CC1 [Example 210, N-(1,4-dimethyl-4-piperidyl)-6-methyl-7-oxo-1H-pyrrolo[2,3-c]pyridine-4-carboxamide] — 10-fold higher, 5300 nM
- CN(CC1CCN(c2ncccn2)CC1)C(=O)c1cn(C)c(=O)c2[nH]ccc12 [Example 157, N,6-dimethyl-7-oxo-N-[(1-pyrimidin-2-yl-4-piperidyl)methyl]-1H-pyrrolo[2,3-c]pyridine-4-carboxamide] — 3.1-fold higher, 1600 nM
- C=CCn1cc(C(=O)N(C)C2CCN(c3cc(CCC)ncn3)CC2)c2cc[nH]c2c1=O [Example 166, 6-allyl-N-methyl-7-oxo-N-[1-(6-propylpyrimidin-4-yl)-4-piperidyl]-1H-pyrrolo[2,3-c]pyridine-4-carboxamide] — 4.1-fold higher, 2100 nM
- Cn1cc(C(=O)N2CCC(c3ccncn3)CC2)c2cc[nH]c2c1=O [Example 56, 6-methyl-4-(4-pyrimidin-4-ylpiperidine-1-carbonyl)-1H-pyrrolo[2,3-c]pyridin-7-one] — 4.9-fold higher, 2500 nM
- CN(CC1CCN(CC2CCCCO2)CC1)C(=O)c1cn(C)c(=O)c2[nH]ccc12 (stereo not shown) [Example 235] — 19-fold higher, 9900 nM
- CC(C)N1CC[C@H](NC(=O)c2cn(C)c(=O)c3[nH]ccc23)[C@H](F)C1 (relative stereo) [Example 240] — 6.7-fold higher, 3400 nM
- Cn1cc(C(=O)NC2CCN(c3ccncn3)CC2)c2cc[nH]c2c1=O [Example 148, 6-methyl-7-oxo-N-(1-pyrimidin-4-yl-4-piperidyl)-1H-pyrrolo[2,3-c]pyridine-4-carboxamide] — within 1.5-fold, 440 nM
- CN(C(=O)c1cn(C)c(=O)c2[nH]ccc12)C1CCN(CCc2ccccc2)CC1 [Example 252, N,6-dimethyl-7-oxo-N-(1-phenethyl-4-piperidyl)-1H-pyrrolo[2,3-c]pyridine-4-carboxamide] — 9.8-fold higher, 5000 nM
- Cc1cnc(N2CCC(NC(=O)c3cn(C)c(=O)c4[nH]ccc34)CC2)nc1 [Example 149, 6-methyl-N-[1-(5-methylpyrimidin-2-yl)-4-piperidyl]-7-oxo-1H-pyrrolo[2,3-c]pyridine-4-carboxamide] — 1.6-fold lower, 320 nM
- CC(C)c1ccc(N2CCC(N(C)C(=O)c3cn(C)c(=O)c4[nH]ccc34)CC2)cc1 [Example 180, N-[1-(4-isopropylphenyl)-4-piperidyl]-N,6-dimethyl-7-oxo-1H-pyrrolo[2,3-c]pyridine-4-carboxamide] — 3.2-fold lower, 160 nM
- Cn1cc(C(=O)N2CCC(c3cnccn3)CC2)c2cc[nH]c2c1=O [Example 51, 6-methyl-4-(4-pyrazin-2-ylpiperidine-1-carbonyl)-1H-pyrrolo[2,3-c]pyridin-7-one] — 8.6-fold higher, 4400 nM
- Cn1cc(C(=O)N2CCC(c3ccccc3)CC2)c2cc[nH]c2c1=O [Example 71, 6-methyl-4-(4-phenylpiperidine-1-carbonyl)-1H-pyrrolo[2,3-c]pyridin-7-one] — 5.9-fold higher, 3000 nM
- Cn1cc(C(=O)NC2CCN(c3nccc(C(F)(F)F)n3)CC2)c2cc[nH]c2c1=O [Example 153, 6-methyl-7-oxo-N-[1-[4-(trifluoromethyl)pyrimidin-2-yl]-4-piperidyl]-1H-pyrrolo[2,3-c]pyridine-4-carboxamide] — within 1.5-fold, 490 nM
- CC(C)N1CC[C@@H](NC(=O)c2cn(C)c(=O)c3[nH]ccc23)[C@H](F)C1 (relative stereo) [Example 209] — within 1.5-fold, 580 nM
- Cn1cc(C(=O)N2CCC(CCNS(C)(=O)=O)CC2)c2cc[nH]c2c1=O [Example 54, N-[2-[1-(6-methyl-7-oxo-1H-pyrrolo[2,3-c]pyridine-4-carbonyl)-4-piperidyl]ethyl]methanesulfonamide] — 5.7-fold higher, 2900 nM
- Cn1cc(C(=O)N2CCC(C(C)(C)C)CC2)c2cc[nH]c2c1=O [Example 47, 4-(4-tert-butylpiperidine-1-carbonyl)-6-methyl-1H-pyrrolo[2,3-c]pyridin-7-one] — 4.5-fold higher, 2300 nM
- Cn1cc(C(=O)N2CCC(N3CCOCC3)CC2)c2cc[nH]c2c1=O [Example 63, 6-methyl-4-(4-morpholinopiperidine-1-carbonyl)-1H-pyrrolo[2,3-c]pyridin-7-one] — 9.2-fold higher, 4700 nM
- Cn1cc(C(=O)NCC2CCCC2)c2cc[nH]c2c1=O [Example 83, N-(cyclopentylmethyl)-6-methyl-7-oxo-1H-pyrrolo[2,3-c]pyridine-4-carboxamide] — within 1.5-fold, 670 nM
- Cn1cc(C(=O)NCC2CCCOC2)c2cc[nH]c2c1=O (stereo not shown) [Example 100] — 3.3-fold higher, 1700 nM
- CC=CCn1cc(C(=O)NCCNC(C)=O)c2cc[nH]c2c1=O [Example 14, N-(2-acetamidoethyl)-6-but-2-enyl-7-oxo-1H-pyrrolo[2,3-c]pyridine-4-carboxamide] — 7.3-fold higher, 3700 nM
- Cn1cc(C(=O)NC2CCN(c3ncc(C#N)cn3)CC2)c2cc[nH]c2c1=O [Example 152, N-[1-(5-cyanopyrimidin-2-yl)-4-piperidyl]-6-methyl-7-oxo-1H-pyrrolo[2,3-c]pyridine-4-carboxamide] — within 1.5-fold, 570 nM
- Cn1cc(C(=O)NCC2CCCN(C(=O)OC(C)(C)C)C2)c2cc[nH]c2c1=O (stereo not shown) [Example 135] — 2.5-fold higher, 1300 nM
- CCCN1CCC(N(C(=O)c2cn(C)c(=O)c3[nH]ccc23)C2CC2)CC1 [Example 82, N-cyclopropyl-6-methyl-7-oxo-N-(1-propyl-4-piperidyl)-1H-pyrrolo[2,3-c]pyridine-4-carboxamide] — 14-fold higher, 7000 nM
- COCCN1CCC(CN(C)C(=O)c2cn(C)c(=O)c3[nH]ccc23)CC1 [Example 193] — 3.1-fold higher, 1600 nM
- Cc1ccnc(N2CCC(NC(=O)c3cn(C)c(=O)c4[nH]ccc34)CC2)n1 [Example 150, 6-methyl-N-[1-(4-methylpyrimidin-2-yl)-4-piperidyl]-7-oxo-1H-pyrrolo[2,3-c]pyridine-4-carboxamide] — within 1.5-fold, 360 nM
- Cn1cc(C(=O)NC2CCN(c3ccccc3)CC2)c2cc[nH]c2c1=O [Example 171, 6-methyl-7-oxo-N-(1-phenyl-4-piperidyl)-1H-pyrrolo[2,3-c]pyridine-4-carboxamide] — 2-fold lower, 260 nM
- Cn1cc(C(=O)NCC(C)(C)N2CCOCC2)c2cc[nH]c2c1=O [Example 36, 6-methyl-N-(2-methyl-2-morpholino-propyl)-7-oxo-1H-pyrrolo [2,3-c]pyridine-4-carboxamide] — 3.3-fold higher, 1700 nM
- Cn1cc(C(=O)NCC2CN(C(=O)OC(C)(C)C)C2)c2cc[nH]c2c1=O [Example 130] — 2.4-fold higher, 1200 nM
- Cn1cc(C(=O)NCCC2CCN(CC(F)(F)F)CC2)c2cc[nH]c2c1=O [Example 20, 6-methyl-7-oxo-N-[2-[1-(2,2,2-trifluoroethyl)-4-piperidyl]ethyl]-1H-pyrrolo[2,3-c]pyridine-4-carboxamide] — 2.9-fold higher, 1500 nM
- CC=CCn1cc(C(=O)NC(C)(C)C)c2cc[nH]c2c1=O [Example 15, 6-but-2-enyl-N-tert-butyl-7-oxo-1H-pyrrolo[2,3-c]pyridine-4-carboxamide] — 1.9-fold higher, 970 nM
- CN1CCC(NC(=O)c2cn(C)c(=O)c3[nH]ccc23)CC1 [Example 4, 6-methyl-N-(1-methyl-4-piperidyl)-7-oxo-1H-pyrrolo[2,3-c]pyridine-4-carboxamide] — 1.6-fold lower, 320 nM
- Cn1cc(C(=O)NC2CCN(c3ncccn3)CC2)c2cc[nH]c2c1=O [Example 44, 6-methyl-7-oxo-N-(1-pyrimidin-2-yl-4-piperidyl)-1H-pyrrolo[2,3-c]pyridine-4-carboxamide] — 1.5-fold lower, 340 nM
- Cn1cc(C(=O)N2CCCCC2)c2cc[nH]c2c1=O [Example 70, 6-methyl-4-(piperidine-1-carbonyl)-1H-pyrrolo[2,3-c]pyridin-7-one] — 13-fold higher, 6400 nM

The molecules below were run against T2, CECR2 (Homo sapiens, UniProt Q9BXF3) (assay: CECR2 TR-FRET Binding Assay). Settings: read-out: IC50.
T2 construct: 424-538 was cloned, expressed, and purified to homogeneity; Flag; made in house
From the text: IC50 Measurements for Inhibitors Using CECR2 TR-FRET Binding Assay

T2 sequence (Q9BXF3 424-538 limits assumed): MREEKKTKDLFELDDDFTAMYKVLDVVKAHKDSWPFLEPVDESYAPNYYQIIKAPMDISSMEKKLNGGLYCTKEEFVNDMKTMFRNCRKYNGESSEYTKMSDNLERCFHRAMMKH

Point of comparison: `C=CCn1cc(C(=O)N(C)C2CCCc3ccc(F)cc32)c2cc(C)[nH]c2c1=O` (stereo not shown) [Example 284], IC50 53 nM. Against it:
- CN(C(=O)c1cn(C)c(=O)c2[nH]ccc12)C1CCN(CCc2ccc(Cl)cc2)CC1 [Example 254] — 13-fold higher, 700 nM
